Active and inactive are the calls of the source. The rule behind the calls is not given here.
How the values were obtained:
[1] = target: T1, Indoleamine 2,3-dioxygenase 1 (Homo sapiens, UniProt P14902); test: Inhibition of human recombinant indoleamine 2,3-dioxygenase at =< 500000 nM
Target sequence in this assay (P14902 whole entry, looked up): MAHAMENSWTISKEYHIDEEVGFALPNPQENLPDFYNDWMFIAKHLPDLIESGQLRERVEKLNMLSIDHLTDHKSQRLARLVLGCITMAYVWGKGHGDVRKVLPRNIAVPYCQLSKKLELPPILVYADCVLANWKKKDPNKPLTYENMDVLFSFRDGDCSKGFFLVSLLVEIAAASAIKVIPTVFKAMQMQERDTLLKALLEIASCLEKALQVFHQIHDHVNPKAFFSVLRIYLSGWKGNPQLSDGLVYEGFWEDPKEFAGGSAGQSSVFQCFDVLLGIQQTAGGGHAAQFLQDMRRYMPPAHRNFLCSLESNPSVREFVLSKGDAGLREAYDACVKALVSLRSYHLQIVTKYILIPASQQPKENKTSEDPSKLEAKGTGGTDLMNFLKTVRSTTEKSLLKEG

[2] = target: T1, Indoleamine 2,3-dioxygenase 1; test: Inhibition of human recombinant indoleamine 2,3-dioxygenase
Target sequence in this assay (P14902 whole entry): as the sequence (P14902 whole entry, looked up) above

Activity [1] | Ki [2] [nM] | Compound
inactive |  | NCCc1c[nH]c2c1C(=O)c1c(c(-c3ccccc3)c3ccccc3c1-c1ccccc1)C2=O
inactive |  | Oc1cccc2[nH]ccc12
 | 190 | O=C1C=CC(=O)c2[nH]ccc21
 | 1490 | O=C(NCCc1c[nH]c2c1C(=O)C=CC2=O)OCc1ccccc1
